Columns and labels:
V. vulgaris = assay: Field trapping Experiment 2, DMNT dose-response with W•H•Y top attractants; format: in vivo, Vespula vulgaris; conditions: Exp 2, DMNT added to WHY top attractant
Protocol: (§1) Three field trapping experiments were carried out during late July to early August 2009, in residential and woody areas around Spokane, Wash., USA, using the newly marketed Rescue® W•H•Y traps (www.rescue.com). As used herein, the W•H•Y trap is a trap in accordance with the description of United States Patent Application Publication No. 2009/0151228. The W•H•Y trap has a top chamber and a bottom chamber. The top chamber is baited with two attractants—one of which is a solid contained in a vial (2-methyl-1-butanol) and the other a liquid mixed with water (acetic acid), herein referred to as the W•H•Y top attractant. The bottom chamber is baited with a liquid attractant (heptyl butyrate) poured onto a cotton pad, herein referred to as the W•H•Y bottom attractant. Separation of the top and bottom attractants (otherwise antagonistic to each other when released from the same chamber) in two chambers was a design feature of this trap and creates two focal attraction sources from one trap for different species of wasps, hornets, and yellowjackets. Traps were hung 1.5-2.0 m above the ground on either the fence or tree branches ca. 5 m apart within each trap line. For each trapping experiment, six sets of traps were deployed with their initial trap positions within each set being randomized. To minimize positional effects and obtain more replications, wasp collections and trap re-randomization were carried out when ≧10-20 wasps were caught in the best trap. Each replicate lasted several days depending on wasp flight activity. Captured wasps were removed from the traps and kept in the zip-bags before taking back to the laboratory for recording of the species, gender status, and catch.
(§2) Experiment 3 (Aug. 5-13, 2009) was conducted to determine the potential behavioral activity of different doses of (E)-4,8-dimethyl-1,3,7-nonatriene alone. The individual (or different doses) HIPVs were loaded into either polyethylene bags or centrifuge tube type of dispensers, and released from the top of the W•H•Y trap chamber. W•H•Y trap attractants (both top and bottom or top only) alone and water (top chamber only) were included in the test as positive and blank controls, respectively. The dispenser types, loading and release rates of the tested semiochemicals are described in Tables 1, 2 and 3.
(§3) Trap catch data were converted to proportion (P) of total captured wasps within each replicate. Data were then transformed by arcsin√P to meet the assumptions of normality and homogeneity of variances for ANOVA. Means were compared by ANOVA followed by the Ryan-Einot-Gabriel-Welsh (REGW) multiple Q test (SPSS 16.0 for Windows) at α=0.05.

D. maculata [1] = assay: as above; format: in vivo, Dolichovespula maculata; conditions: Exp 2, DMNT added to WHY top attractant
Protocol: as §1
(§4) Experiment 1 (Jul. 22-30, 2009) tested ten synthetic HIPV candidates [(E)-2-hexenal, (Z)-3-hexen-1-ol, (Z)-3-hexenyl acetate, cis-ocimene, linalool, methyl salicylate, geranyl acetate, trans-β-caryophyllene, trans-β-farnesene and (E)-4,8-dimethyl-1,3,7-nonatriene], including several paper wasp EAD-active compounds (see FIG. 2 for details), to determine their potential synergistic effect on the Rescue® W•H•Y trap attractants to paper wasps, yellowjackets, and hornets. Experiment 2 (Aug. 5-13, 2009) tested behavioral responses of the paper wasps and yellowjackets to the Rescue® W•H•Y trap attractants (top attractants only) and its combination with (E)-4,8-dimethyl-1,3,7-nonatriene, one of the EAD-active and behaviorally significant HIPVs, in a dose-response fashion. Experiment 3 (Aug. 5-13, 2009) was conducted to determine the potential behavioral activity of different doses of (E)-4,8-dimethyl-1,3,7-nonatriene alone. The individual (or different doses) HIPVs were loaded into either polyethylene bags or centrifuge tube type of dispensers, and released from the top of the W•H•Y trap chamber. W•H•Y trap attractants (both top and bottom or top only) alone and water (top chamber only) were included in the test as positive and blank controls, respectively. The dispenser types, loading and release rates of the tested semiochemicals are described in Tables 1, 2 and 3.
as §3

P. dominulus [2] = assay: as above; format: in vivo, Polistes dominulus; conditions: Exp 2, DMNT added to WHY top attractant
Protocol: as §1, §2, §3

V. atropilosa = assay: Field trapping Experiment 3, different doses of DMNT alone; format: in vivo, Vespula atropilosa
Protocol: as §1, §2, §3

V. pensylvanica = assay: as above; format: in vivo, Vespula pensylvanica
Protocol: as §1, §2, §3

D. maculata [3] = assay: as above; format: in vivo, Dolichovespula maculata
Protocol: as §1, §4, §3

D. arenaria = assay: as above; format: in vivo, Dolichovespula arenaria
Protocol: as §1, §4, §3

P. dominulus [4] = assay: as above; format: in vivo, Polistes dominulus
Protocol: as §1, §2, §3

P. aurifer = assay: as above; format: in vivo, Polistes aurifer
Protocol: as §1, §2, §3

paper wasps = assay: Field trapping Experiment 1, top chamber catches; format: in vivo, P. dominulus and P. aurifer; conditions: Exp 1; HIPV combined with W•H•Y attractant (acetic acid and 2-methyl-1-butanol) in the top chamber
Protocol: as §1, with “To minimize positional effects and obtain more replications, wasp collections and trap re-randomization were carried out when ≧10-20 wasps were caught in the best trap. Each replicate lasted several days depending on wasp flight activity. Captured wasps were removed from the traps and kept in the zip-bags before taking back to the laboratory for recording of the species, gender status, and catch.” left out

[5] = system: paper wasps and yellowjackets; assay: Field trapping Experiment 2; format: in vivo, V. pensylvanica, V. vulgaris and P. dominulus; conditions: Exp 2
Protocol: as §1, with “To minimize positional effects and obtain more replications, wasp collections and trap re-randomization were carried out when ≧10-20 wasps were caught in the best trap. Each replicate lasted several days depending on wasp flight activity. Captured wasps were removed from the traps and kept in the zip-bags before taking back to the laboratory for recording of the species, gender status, and catch.” left out

[6] = system: paper wasps, yellowjackets, or hornets; assay: Field trapping Experiment 3, DMNT alone; format: in vivo; conditions: Exp 3, different doses alone, without any W•H•Y attractants
Protocol: as §1, with “To minimize positional effects and obtain more replications, wasp collections and trap re-randomization were carried out when ≧10-20 wasps were caught in the best trap. Each replicate lasted several days depending on wasp flight activity. Captured wasps were removed from the traps and kept in the zip-bags before taking back to the laboratory for recording of the species, gender status, and catch.” left out

[7] = release rate 0.25, hole 0.5 mm, loading 15 μL
[8] = release rate 0.5, hole 1 mm, loading 30 μL
[9] = release rate 1, hole 2 mm, loading 75 μL
[10] = release rate 1.5, hole 3 mm, loading 175 μL
[11] = release rate 2, hole 5.5 mm, loading 325 μL
[12] = Exp 3, release rate 0.25, hole 0.5 mm, loading 15 μL
[13] = Exp 3, release rate 0.5, hole 1 mm, loading 30 μL
[14] = Exp 3, release rate 1, hole 2 mm, loading 75 μL
[15] = Exp 3, release rate 1.5, hole 3 mm, loading 175 μL
[16] = Exp 3, release rate 2, hole 5.5 mm, loading 325 μL

C=C/C=C(\C)CCC=C(C)C [(E)-4,8-dimethyl-1,3,7-nonatriene]
Total Yellowjackets Caught V. vulgaris (V. vulgaris; [7]): 8
Total Yellowjackets Caught V. vulgaris (V. vulgaris; [8]): 8
Total Yellowjackets Caught V. vulgaris (V. vulgaris; [9]): 5
Total Yellowjackets Caught V. vulgaris (V. vulgaris; [10]): 5
Total Yellowjackets Caught V. vulgaris (V. vulgaris; [11]): 1
Total Yellowjackets Caught D. maculata (D. maculata [1]; [7]): 0
Total Yellowjackets Caught D. maculata (D. maculata [1]; [8]): 1
Total Yellowjackets Caught D. maculata (D. maculata [1]; [9]): 1
Total Yellowjackets Caught D. maculata (D. maculata [1]; [10]): 0
Total Yellowjackets Caught D. maculata (D. maculata [1]; [11]): 0
Total Paper Wasps Caught P. dominulus (P. dominulus [2]; [7]): 7
Total Paper Wasps Caught P. dominulus (P. dominulus [2]; [8]): 2
Total Paper Wasps Caught P. dominulus (P. dominulus [2]; [9]): 13
Total Paper Wasps Caught P. dominulus (P. dominulus [2]; [10]): 8
Total Paper Wasps Caught P. dominulus (P. dominulus [2]; [11]): 5
Total Yellowjackets Caught V. atropilosa (V. atropilosa; [12]): 2
Total Yellowjackets Caught V. atropilosa (V. atropilosa; [13]): 1
Total Yellowjackets Caught V. atropilosa (V. atropilosa; [14]): 0
Total Yellowjackets Caught V. atropilosa (V. atropilosa; [15]): 0
Total Yellowjackets Caught V. atropilosa (V. atropilosa; [16]): 1
Total Yellowjackets Caught V. pensylvanica (V. pensylvanica; [12]): 43
Total Yellowjackets Caught V. pensylvanica (V. pensylvanica; [13]): 12
Total Yellowjackets Caught V. pensylvanica (V. pensylvanica; [14]): 34
Total Yellowjackets Caught V. pensylvanica (V. pensylvanica; [15]): 24
Total Yellowjackets Caught V. pensylvanica (V. pensylvanica; [16]): 24
Total Yellowjackets Caught D. maculata (D. maculata [3]; [12]): 0
Total Yellowjackets Caught D. maculata (D. maculata [3]; [13]): 0
Total Yellowjackets Caught D. maculata (D. maculata [3]; [14]): 0
Total Yellowjackets Caught D. maculata (D. maculata [3]; [15]): 0
Total Yellowjackets Caught D. maculata (D. maculata [3]; [16]): 0
Total Yellowjackets Caught D. arenaria (D. arenaria; [12]): 0
Total Yellowjackets Caught D. arenaria (D. arenaria; [13]): 0
Total Yellowjackets Caught D. arenaria (D. arenaria; [14]): 0
Total Yellowjackets Caught D. arenaria (D. arenaria; [15]): 0
Total Yellowjackets Caught D. arenaria (D. arenaria; [16]): 0
Total Paper Wasps Caught P. dominulus (P. dominulus [4]; [12]): 7
Total Paper Wasps Caught P. dominulus (P. dominulus [4]; [13]): 6
Total Paper Wasps Caught P. dominulus (P. dominulus [4]; [14]): 4
Total Paper Wasps Caught P. dominulus (P. dominulus [4]; [15]): 17
Total Paper Wasps Caught P. dominulus (P. dominulus [4]; [16]): 10
Total Paper Wasps Caught P. aurifer (P. aurifer; [12]): 3
Total Paper Wasps Caught P. aurifer (P. aurifer; [13]): 1
Total Paper Wasps Caught P. aurifer (P. aurifer; [14]): 0
Total Paper Wasps Caught P. aurifer (P. aurifer; [15]): 5
Total Paper Wasps Caught P. aurifer (P. aurifer; [16]): 0
effect on trap catches of paper wasps in the top chambers (paper wasps): significantly increased
effect on trap catches of the vespid workers ([5]; 0.5 or 1-1.5 mg/day added to the top attractants, especially V. pensylvanica, V. vulgaris and P. dominulus): significantly increased
effect on the trap catches ([5]; other release rates (doses) added to the top attractants): no effect
attraction alone versus water blank control traps [6]: not different
attraction alone versus water blank control traps ([6]; listed as DMNT): not significantly attractive
